Results as given in patent US9451775B2, “Heterocyclic compounds as pesticides” (Bayer Intellectual Property GmbH, priority 2008, dated 2016).

Test: logP determination by HPLC (formic acid method)
Assay type: physicochemical
Conditions: pH 3.4; values given in the preparation examples; formic acid method; read-out: logP (HCOOH)
Protocol: 1) Description of the method for determining the logP values (formic acid method)
The logP values given in the table were determined in accordance with EEC Directive 79/831 Annex V.A8 by HPLC (High Performance Liquid Chromatography) on a reversed-phase column (C18). Temperature: 55° C.
Mobile phases for the determination in the acidic range (pH 3.4):
Mobile phase A: Acetonitrile+1 ml of formic acid/litre. Mobile phase B: water+0.9 ml of formic acid/litre.
Gradient: from 10% mobile phase A/90% mobile phase B to 95% mobile phase A/5% mobile phase B in 4.25 min.
Calibration was carried out using unbranched alkan-2-ones (having 3 to 16 carbon atoms) with known logP values (determination of the logP values by the retention times using linear interpolation between two successive alkanones). The lambda max values were determined in the maxima of the chromatographic signals using the UV spectra from 200 nm to 400 nm.

Row | Compound | chromatographic logP
1 | COC(=O)c1cc(-c2cccnc2)nn1C (single isomer, unassigned) [drawing 76 isomer 1] | 0.84
2 | COC(=O)c1cc(-c2cccnc2)n(C)n1 (single isomer, unassigned) [drawing 76 isomer 2] | 0.77

Same assay, conditions: reversed-phase HPLC column (C18), pH 3.4, HPLC on reversed-phase column (C18), acidic range (pH 3.4), 55° C.; read-out: logP (HCOOH)

Row | Compound | chromatographic logP
3 | Clc1cccc(-c2cnc(-c3cccnc3)s2)n1 [compound 178] | 2.43
4 | Cc1nc(-c2cncnc2)sc1-c1ccnc(-c2ncccn2)n1 [compound 179] | 1.06
5 | c1cncc(-c2ncc(-c3cccc(-c4nccnn4)n3)s2)c1 [compound 180] | 1.43
6 | CN1CCOC(c2cccc(-c3cnc(-c4cccnc4)s3)n2)=N1 [compound 181] | 1.82
7 | c1cncc(-c2ncc(-c3cccc(-c4ncon4)n3)s2)c1 [compound 182] | 1.74
8 | c1cncc(-c2ncc(-c3cccc(-c4nc[nH]n4)n3)s2)c1 [compound 183] | 1.24
9 | CS(=O)(=O)c1cccc(-c2cnc(-c3cccnc3)s2)n1 [compound 184] | 1.44
10 | c1cncc(-c2ncc(-c3cccc(-n4cccn4)n3)s2)c1 [compound 187] | 2.53
11 | Cc1cnn(-c2cccc(-c3cnc(-c4cccnc4)s3)n2)c1 [compound 188] | 3.08
12 | Cc1ccn(-c2cccc(-c3cnc(-c4cccnc4)s3)n2)n1 [compound 189] | 2.85
13 | Cn1nc(-c2cccnc2)cc1-c1cccc(Br)n1 [compound 190] | 1.67
14 | Cn1nc(-c2cccnc2)cc1-c1cccc(-c2ncccn2)n1 [compound 192] | 1.12
15 | c1cncc(-c2ncc(-c3cccc(-n4ccnc4)n3)s2)c1 [compound 199] | 0.93
16 | Cc1nccn1-c1cccc(-c2cnc(-c3cccnc3)s2)n1 [compound 201] | 0.89
17 | c1cncc(-c2ncc(-c3cccc(-n4cccc4)n3)s2)c1 [compound 202] | 3.13
18 | c1cncc(-c2ncc(-c3cccc(C4OCCCO4)n3)s2)c1 [compound 203] | 1.99
19 | O=C1CCCCN1c1cccc(-c2cnc(-c3cccnc3)s2)n1 [compound 204] | 1.87
20 | c1cncc(-c2ncc(-c3cccc(C4OCCO4)n3)s2)c1 [compound 205] | 1.82
21 | O=C1CCCN1c1cccc(-c2cnc(-c3cccnc3)s2)n1 [compound 206] | 2.11
22 | c1cncc(-c2ncc(-c3cnc(-c4cccnc4)s3)s2)c1 [compound 217] | 1.43
23 | Cn1nc(-c2cccnc2)cc1-c1cccnc1 [compound 218] | 0.89
24 | Nc1cccc(-c2cnc(-c3cccnc3)s2)n1 [compound 219] | 0.92
25 | COC(OC)c1cccc(-c2cnc(-c3cccnc3)s2)n1 [compound 225] | 2.08
26 | Cn1nc(-c2cccnc2)cc1-c1cccnc1Cl [compound 226] | 0.98
27 | Cn1nc(-c2cccnc2)cc1-c1cncc(C#N)c1 [compound 227] | 0.89
28 | Cn1nc(-c2cccnc2)cc1-c1cncc(F)c1 [compound 228] | 0.89
29 | CCOc1ccc(-c2cc(-c3cccnc3)nn2C)cn1 [compound 245] | 1.46
30 | COc1ccc(-c2cc(-c3cccnc3)nn2C)cn1 [compound 246] | 1.14

The remaining lines, values ahead:

Row | chromatographic logP | Compound
31 | 2.53 | Cc1nc(-c2cccnc2)sc1-c1nc(-c2ccccn2)cs1 [compound 172]
32 | 2.66 | Cc1cccc(-c2csc(-c3sc(-c4cccnc4)nc3C)n2)n1 [compound 173]
33 | 1.76 | CNc1nc(-c2sc(-c3cccnc3)nc2C)cs1 [compound 174]
34 | 2.23 | Cc1nc(-c2cccnc2)sc1-c1nc(C(=O)NCC(F)(F)F)cs1 [compound 175]
35 | 3.21 | COc1cc(OC)nc(-c2nc(-c3sc(-c4cccnc4)nc3C)cs2)n1 [compound 176]
36 | 2.19 | Cc1nc(-c2cccnc2)sc1-c1csc(-c2cccnc2)n1 [compound 177]
37 | 1.68 | Cc1cc(-c2sc(-c3cncc(F)c3)nc2C)nc(-c2ncccn2)n1 [compound 185]
38 | 1.63 | Cc1nc(-c2cncc(F)c2)sc1-c1ccnc(-c2ncccn2)n1 [compound 186]
39 | 1.41 | CNc1nccc(-c2sc(-c3cccnc3)nc2C)n1 [compound 193]
40 | 2.15 | Cc1nc(-c2cccnc2)sc1-c1ccnc(N(C)C)n1 [compound 194]
41 | 3.76 | Cc1nc(-c2cccnc2)sc1-c1ccn(-c2nc(Cl)ns2)n1 [compound 195]
42 | 3.01 | COCCNC(=S)n1ccc(-c2sc(-c3cccnc3)nc2C)n1 [compound 196]
43 | 2.58 | Cc1cc(C)nc(-c2nc(-c3sc(-c4cccnc4)nc3C)cs2)n1 [compound 197]
44 | 2.83 | CN(C)c1cccc(-c2cnc(-c3cccnc3)s2)n1 [compound 200]
45 | 1.34 | CN(C)C(=O)c1cccc(-c2nnc(-c3cccnc3)s2)n1 [compound 221]
46 | 2.46 | CC(F)(F)c1ccc(-c2cnc(-c3cccnc3)s2)nc1 [compound 223]
47 | 2.77 | CC(F)(F)c1cccc(-c2cnc(-c3cccnc3)s2)n1 [compound 224]
48 | 1.78 | CON(C)C(=O)c1csc(-c2sc(-c3cccnc3)nc2C)n1 [compound 229]
49 | 2.69 | Cc1nc(-c2cccnc2)sc1-c1nc(C(=O)NC(C)C2CC2)cs1 (stereo not drawn) [compound 233]
50 | 2.93 | Cc1nc(-c2cccnc2)sc1-c1nc(C(=O)NC(C)(C)C)cs1 [compound 234]
51 | 2.38 | Cc1nc(-c2cccnc2)sc1-c1nc(C(=O)NCC(F)(F)C(F)F)cs1 [compound 235]
52 | 2.38 | Cc1nc(-c2cccnc2)sc1-c1nc(C(=O)N2CCCCC2)cs1 [compound 236]
53 | 2.05 | Cc1nc(-c2cccnc2)sc1-c1nc(C(=O)N2CCCC2)cs1 [compound 237]
54 | 2.53 | Cc1nc(-c2cccnc2)sc1-c1nc(C(=O)N(C)CC(F)(F)F)cs1 [compound 238]
55 | 2.07 | O=C(NCC(F)(F)F)c1cccc(-c2nnc(-c3cccnc3)s2)n1 [compound 241]
56 | 1.61 | Cc1nc(-c2cccnc2)sc1-c1nc(C(=O)N2CCCO2)cs1 [compound 242]
57 | 1.67 | Cc1nc(-c2cccnc2)sc1-c1nc(C(=O)N(C)C)cs1 [compound 243]
58 | 1.77 | COC(=O)c1cccc(-c2cnc(-c3cccnc3)s2)n1 [compound 244]
59 | 1.66 | Cc1nc(-c2cccnc2)sc1-c1nc(C(=O)N2CCOCC2)cs1 [compound 247]
60 | 1.54 | CCN(C)C(=O)c1cccc(-c2nnc(-c3cccnc3)s2)n1 [compound 248]

Same assay, conditions: reversed-phase HPLC column (C18), pH 3.4, values printed in the text of the preparation examples; formic acid method; read-out: logP (HCOOH)

Row | Compound | chromatographic logP
61 | CC(=O)c1cc(-c2cccnc2)nn1C | 0.61
62 | CN(C)/C=C/C(=O)c1cc(-c2cccnc2)nn1C | 0.6
63 | Brc1cccc(C2=NOCCO2)n1 [3-(6-Bromopyridin-2-yl)-5,6-dihydro-[1,4,2]dioxazine] | 1.37
64 | c1cncc(-c2nccs2)c1 [3-Thiazol-2-ylpyridine] | 0.62
65 | O=C(NO)c1cccc(Br)n1 [6-Bromopyridine-2-carboxylic acid hydroxyamide] | 0.69
66 | CCOC(=O)C(=O)NNC(=O)c1cccnc1 [Ethyl oxo-[N′-(pyridin-3-carbonyl)hydrazino]acetate] | -0.13

Continued, values first:

Row | chromatographic logP | Compound
67 | 1.16 | CC(=O)c1nnc(-c2cccnc2)s1 [1-(5-Pyridin-3-yl-[1,3,4]thiadiazol-2-yl)ethanone]
68 | 2.66 | Cc1nc(-c2cccnc2)sc1-c1cccc(Cl)n1 [2-Chloro-6-(4-methyl-2-pyridin-3-ylthiazol-5-yl)pyridine]
69 | 1.48 | CC(=O)c1sc(-c2cccnc2)nc1C [3-(5-Acetyl-4-methylthiazol-2-yl)pyridinium chloride]
70 | 2.3 | Cc1nc(-c2cccnc2)sc1Br [3-(5-Bromo-4-methylthiazol-2-yl)pyridine]
71 | 1.35 | Cc1nc(-c2cccnc2)sc1C(=O)/C=C/N(C)C [3-Dimethylamino-1-(4-methyl-2-pyridin-3-ylthiazol-5-yl)propenone]
72 | 0.15 | c1cncc(-c2nncs2)c1 [3-[1,3,4]Thiadiazol-2-ylpyridine]
73 | 1.31 | Cc1nc(-c2cccnc2)sc1-c1cc[nH]n1 [3-[4-Methyl-5-(1H-pyrazol-3-yl)thiazol-2-yl]pyridine]
74 | 1.08 | Cc1nc(-c2cccnc2)sc1C(=O)NN(CCO)c1ncccn1 [4-Methyl-2-pyridin-3-ylthiazole-5-carboxylic acid N-(hydroxyethyl)-N-pyrimidin-2-ylhydrazide]
75 | 2.11 | Cc1nc(-c2cccnc2)sc1-c1cccc(C#N)n1 [6-(4-Methyl-2-pyridin-3-ylthiazol-5-yl)pyridine-2-carbonitrile]
76 | 2.13 | Cc1nc(-c2cccnc2)sc1-c1cccc(C(N)=S)n1 [6-(4-Methyl-2-pyridin-3-ylthiazol-5-yl)pyridine-2-carbothioamide]
77 | 1.05 | CN(C)/C=C/C(=O)c1nnc(-c2cccnc2)s1 [(3-Dimethylamino-1-(5-pyridin-3-yl-[1,3,4]thiadiazol-2-yl)propenone]

Same assay, conditions: values given in the preparation examples; formic acid method

Row | logP (HCOOH) | Compound
78 | 1.5 | CC(=O)c1sc(-c2cccnc2)nc1C [1-(4-Methyl-2-pyridin-3-ylthiazol-5-yl)ethanone]
